Reference: patent US20160375439A1, “Apparatus and Methods for Single-Particle Isolation and Single-Particle Measurement” (priority 2015, published 2016)
Where “and” joins values, the source holds several entries; their conditions need not be identical. Identical values can stand only once. Entries after “also recorded” stand apart in the source; their conditions may differ. Like-named read-outs stand apart in the source and are kept apart here.

Legend:
leukemia cells = settings: simultaneous administration of verapamil & CsA and MK-571; cited from earlier work
22Rv1 cells [1] = assay type: cell-based, human
Protocol: (§1) The procedure for drug accumulation measurement has previously been reported.^45-47 Briefly, the anti-cancer drug (i.e., DNR or OG-PTX) was introduced via Reservoir D and drug accumulation of the anti-cancer drug was measured in the single cell. […] DNR was first used for drug accumulation measurement as it had inherent fluorescence (λex=470 nm; λem=585 nm). Thereafter, paclitaxel that was fluorescently labelled by Oregon Green was examined (λex=492 nm; λem=524 nm), since paclitaxel was the commonly-used anti-cancer drug for prostate cancer treatment.
As shown in FIG. 11a (solid line), the fluorescence signal of the DNR was 630±77. After adding different concentrations of FTC, the signals were enhanced. Similar experiments were performed by adding different concentrations of OG-PTX (FIG. 11a: dashed line). Therefore, the optimal fluorescence signals were obtained after treating the single cells with both anti-cancer drugs in the presence of 40 μM of FTC.
Obvious enhancement in fluorescent intensity (at 585 nm) was observed (i.e., 2.8±0.3, 4.4±0.5, 4.9±0.5 fold-increase (p<0.0001). After washing the cell, anti-P-gp was applied. The fluorescence signal (524 nm) increased from 265±70 to 615±72 cps, confirming that the PCa cell was cancerous.
One of the key requirements for the effectiveness of chemotherapy is the sufficient delivery of chemotherapeutic drug into the cancer cell.^66-69 As mentioned, drug resistance due to MDR activity is due to the function of ABC transporters that reduce intracellular drug accumulation. […] Similar results were obtained after applying OG-PTX in the presence of same MDR inhibitors (FIG. 15a: black solid line & FIG. 15b: gray solid line) (3.0±0.2, 3.1±0.2, 3.1±0.2, and 2.9±0.2, 2.9±0.2, 3.0±0.2 of fold-increase, respectively). […] On the other hand, after accumulation of DNR in the presence of MDR inhibitors, DNR was more effectively retained in MDR cells following removal of MDR inhibitors, particularly FTC from single MDR-treated cell (FIG. 14b: black dashed line).

22Rv1 cells [2] = assay type: cell-based, human; settings: for a2 (pre-exponential factor, normalized fluorescence plateau) / b2: same single cell
From the text: We previously reported that a mono-exponential drug uptake model could be applied to fit the experimental data in order to compare drug accumulation kinetics in MDR cells.^45 The following equation was used to describe the time-dependent change of single-cell DNR accumulation:
where x is time; y is the normalized fluorescence signal obtained by dividing the intracellular concentrations by the extracellular DNR concentrations; a is the y-axis value that will reach when the time x is sufficiently large (this value is called pre-exponential factor that is related to the cell permeability coefficient p of drug uptake and the pump rate k for drug efflux); b, which is the half time when y reaches 50% of a, is given by
The curve fitting analysis was performed on the normalized fluorescence using the SAS software. […] Because of the initially large drug concentration gradient across the cell membrane, the initial cellular accumulation rate of drugs is very fast,^65 and this fast rate is shown as a short half time of ˜106 s in FIG. 13a. When the concentration gradient became smaller, the drug uptake rate became slower; ultimately, the signal reached a plateau as the drug uptake rate was close to the drug efflux rate. In the presence of FTC, drug accumulation increased (FIG. 13b). This significant drug enhancement is believed to be caused by the action of FTC on the ABCG2 drug efflux pump.
In a similar manner, an experiment was conducted by treating a 22Rv1 cell by 3 μM of OG-PTX, followed by OG-PTX-loaded FTC40 of μM, as shown in FIGS. 13c and 13d.

22Rv1 cells [3] = assay: On-chip drug accumulation measurement (fluorescence) of anti-cancer drug alone in a single 22Rv1 cell; assay type: cell-based, human; settings: for corrected signal of OG-PTX / corrected signal of DNR (Fi): single 22Rv1 cell; for corrected signal of OG-PTX: FIG. 8b; for corrected signal of DNR (Fi): FIG. 8a
From the text: After the cell was kept stationary, the medium was introduced into Reservoir D to induce a liquid flow to make sure the cell was stationary before running the drug accumulation experiment. An optical detection system was employed for simultaneous fluorescence measurement and bright-field imaging.^47,58
as §1
Drug accumulation was conducted in Chamber 2. In the first step, accumulation of the anti-cancer drug (i.e., DNR or OG-PTX) in the MDR single cell was measured in the absence of MDR inhibitor (FIG. 7a). The 22Rv1 cells naturally express the ABCG2 transporter, which actively transports drug molecules out of the cell.^50 As DNR is a well-known ABCG2 substrate,^51 the initial accumulation of DNR without the influence of any MDR inhibitor was low. […] When the cell was inside the window, the total fluorescent intensity (Ft) was measured; whereas the background (Fb) was measured when the cell was outside the window.^58, 59 Subtraction of the background (Fb) from the total fluorescent intensity (Ft) gave a corrected signal (Fi) representing the drug concentration inside the single prostate cancer cell.^45, 59
The experiment was continued using DNR at different concentrations (3.5, 7, 14, 35, 70, 350 μM) in order to determine the reasonable initial signal of drug accumulation in the cell. […] The signal obtained from DNR at 35 μM provided the optimal initial value. Similarly, other experiments were conducted on a single 22Rv1 cell by treating the cell with OG-PTX at different concentrations (0.3, 1.5, 3, 6, 30 μM). […] Therefore, the optimal fluorescence signal was obtained after treating the single cell with 3 μM of OG-PTX. After the optimization experiment for drug concentration, subsequent experiments were carried out with 35 μM of DNR or 3 μM of OG-PTX. […] A similar experiment was conducted on another single 22Rv1 cell by adding 3 μM of OG-PTX, indicating saturation in the fluorescent intensity (FIG. 8d).

WBC [4] = assay: Single-cell DNR accumulation in white blood cell (WBC); assay type: cell-based, mouse; settings: 35 μM DNR alone, FIG. 12c
Protocol: as §1
On the other hand, in a similar experiment conducted on the WBC (FIG. 12c), the cell was not stained by the anti-Pgp antibody, indicating it is not a PCa cell.

WBC [5] = assay: Trypan blue treatment of WBC; assay type: cell-based, mouse; settings: after high DNR accumulation, FIG. 12 f3
22Rv1 cells [6] = assay: Trypan blue treatment of single 22Rv1 cell (cell viability); assay type: cell-based, human
From the text: This dye was used to check if the cell membrane was compromised after the exposure to the various conditions, as a measure of cell viability.

22Rv1 cells [7] = assay: Effect of MDR inhibitors on DNR accumulation in single 22Rv1 cell; assay type: cell-based, human
22Rv1 cells [8] = settings: 22Rv1 cells treated by FTC (25 μM); cited from earlier work
[9] = Step 2: 3 μM OG-PTX + 40 μM FTC

Compound: COc1ccc(CCN(C)CCCC(C#N)(c2ccc(OC)c(OC)c2)C(C)C)cc1OC (stereo not shown) [verapamil]
- intracellular levels of [3H]-azacytidine (leukemia cells): increase

Compound: CN(C)C(=O)CCSC(SCCC(=O)O)c1cccc(/C=C/c2ccc3ccc(Cl)cc3n2)c1 (stereo not shown) [MK-571]
- intracellular levels of [3H]-azacytidine (leukemia cells): increase

Compound: Oregon Green® 488-conjugated paclitaxel [OG-PTX]
- fold-increase in fluorescent intensity (at 585 nm), OG-PTX accumulation (22Rv1 cells [1]; single 22Rv1 cell isolated from WBCs, successive MDR inhibitor treatments not given, FIG. 12b): 2.8±0.3 fold and 4.4±0.5 fold and 4.9±0.5 fold
- half-time to reach plateau (22Rv1 cells [2]; 3 μM OG-PTX only, FIG. 13c): 98 s
- a1 (pre-exponential factor, normalized fluorescence plateau) (22Rv1 cells [2]; Step 1: 3 μM OG-PTX only): 1.0±0.1
- b1 (22Rv1 cells [2]; Step 1: 3 μM OG-PTX only): 0.007 ± 0.006 s⁻¹
- corrected signal of OG-PTX (22Rv1 cells [3]; 0.3 μM OG-PTX): 60±48 cps
- corrected signal of OG-PTX (22Rv1 cells [3]; 1.5 μM OG-PTX): 100±52 cps
- fold-increase in OG-PTX accumulation (22Rv1 cells [3]; 3 μM OG-PTX alone for 4000 s (negative control), three successive values, FIG. 15a dotted line): 1.1±0.1 fold and 1.2±0.1 fold
- corrected signal of OG-PTX (22Rv1 cells [3]; 3 μM OG-PTX): 510±88 cps and 500±55 cps
- corrected signal of OG-PTX (22Rv1 cells [3]; 6 μM OG-PTX): 1300±56 cps
- corrected signal of OG-PTX (22Rv1 cells [3]; 30 μM OG-PTX): 2900±72 cps

Compound: COc1cccc2c1C(=O)c1c(O)c3c(c(O)c1C2=O)C[C@@](O)(C(C)=O)C[C@@H]3O[C@H]1C[C@H](N)[C@H](O)[C@H](C)O1 [DNR, Daunorubicin]
- DNR accumulation behaviour in WBC (WBC [4]): continued to rise; also recorded: continuous increase in drug accumulation
- trypan blue staining of WBC (WBC [5]): staining by trypan blue
- cell viability by trypan blue (22Rv1 cells [6]; single 22Rv1 cell after 35 μM DNR, DEP capture and xenon lamp excitation, FIG. 9c): viable
- trypan blue staining (cell membrane integrity) (22Rv1 cells [6]; single 22Rv1 cells after 35 μM DNR or 3 μM OG-PTX in the presence of 40 μM FTC, FIG. 13): no cell staining
- half time to reach the plateau (22Rv1 cells [2]; 35 μM DNR only, FIG. 13a): ~106 s
- a1 (pre-exponential factor, normalized fluorescence plateau) (22Rv1 cells [2]; Step 1: 35 μM DNR only): 1.0±0.3
- b1 (22Rv1 cells [2]; Step 1: 35 μM DNR only): 0.010 ± 0.003 s⁻¹
- corrected signal of DNR (Fi) (22Rv1 cells [3]; 3.5 μM DNR): 100±37 cps
- corrected signal of DNR (Fi) (22Rv1 cells [3]; 7 μM DNR): 290±39 cps
- corrected signal of DNR (Fi) (22Rv1 cells [3]; 14 μM DNR): 260±41 cps
- fold-increase in DNR accumulation (22Rv1 cells [3]; 35 μM DNR alone for 4000 s (negative control), three successive values, FIG. 14a dotted line): 1.1±0.1 fold and 1.2±0.1 fold
- fold-increase in fluorescence (22Rv1 cells [3]; 35 μM DNR only (negative control), FIG. 9a bottom curve): 1.3±0.2 fold and 1.3 fold
- corrected signal of DNR (Fi) (22Rv1 cells [3]; 35 μM DNR): 535±92 cps and 530±42 cps
- corrected signal of DNR (Fi) (22Rv1 cells [3]; 70 μM DNR): 550±47 cps
- corrected signal of DNR (Fi) (22Rv1 cells [3]; 350 μM DNR): 1280±50 cps
- fluorescence signal of the DNR (22Rv1 cells [3]; before adding FTC, FIG. 11a solid line): 630±77
- fold-increase in fluorescent intensity (at 585 nm), DNR accumulation (22Rv1 cells [7]; single 22Rv1 cell isolated from WBCs, successive MDR inhibitor treatments not given, FIG. 12a): 3.3±0.3 fold and 4.5±0.5 fold and 5.4±0.5 fold

Compound: COc1ccc2c3c([nH]c2c1)[C@H](C=C(C)C)N1C(=O)[C@@H]2CCCN2C(=O)[C@@H]1C3 [FTC, fumitremorgin C]
- fold accumulation of D-luciferin (22Rv1 cells [8]): 2.0 fold
- fold-increase for OG-PTX accumulation, based on curve fitting (22Rv1 cells [1]; 3 μM OG-PTX + 40 μM FTC, FIG. 13): 2.4±0.4 fold
- fold-increase in OG-PTX accumulation (22Rv1 cells [1]; 3 μM OG-PTX + 40 μM FTC, three successive values, FIG. 15a solid line): 3.0±0.2 fold and 3.1±0.2 fold
- fold-increase in OG-PTX accumulation after removing inhibitor (22Rv1 cells [1]; 3 μM OG-PTX, FTC removed, three successive values, FIG. 15a dashed line): 2.7±0.2 fold and 1.65±0.2 fold and 1.4±0.2 fold
- fold-increase in OG-PTX accumulation, average of 6 individual cell experiments (22Rv1 cells [1]; FTC, followed by CsA, then FTC+CsA on the same cell, FIG. 15c): 2.7±0.3 fold
- half-time to reach plateau (22Rv1 cells [2]; 3 μM OG-PTX + 40 μM FTC, FIG. 13d): 24 s
- half time to reach the plateau (22Rv1 cells [2]; 35 μM DNR + 40 μM FTC, FIG. 13b): 346 s
- a2 (pre-exponential factor, normalized fluorescence plateau) (22Rv1 cells [2]; [9]): 2.4±0.4
- b2 (22Rv1 cells [2]; [9]): 0.003 ± 0.008 s⁻¹
- a2 (pre-exponential factor, normalized fluorescence plateau) (22Rv1 cells [2]; Step 2: 35 μM DNR + 40 μM FTC): 3.4±0.2
- b2 (22Rv1 cells [2]; Step 2: 35 μM DNR + 40 μM FTC): 0.004 ± 0.002 s⁻¹
- fold-increase for DNR accumulation, based on curve fitting (22Rv1 cells [7]; 35 μM DNR + 40 μM FTC, FIG. 13): 3.4±0.2 fold
- fold-increase in DNR accumulation (22Rv1 cells [7]; 35 μM DNR + 40 μM FTC, after 1000 s of adding inhibitor, three successive values, FIG. 14a solid line): ~3.7±0.2 fold and ~3.8±0.2 fold
- fold-increase in DNR accumulation after removing inhibitor (22Rv1 cells [7]; 35 μM DNR, FTC removed after 2000 s, three successive values, FIG. 14a dashed line): 3.8±0.2 fold and 3.2±0.2 fold and 2.7±0.2 fold
- fold-increase in DNR accumulation signal (22Rv1 cells [7]; 35 μM DNR, after adding 40 μM FTC, FIG. 9a top curve): 3.5±0.3 fold
- fold-increase in DNR accumulation, average of 6 individual cell experiments (22Rv1 cells [7]; FTC, followed by CsA, then FTC+CsA on the same cell, FIG. 14c): 3.7±0.4 fold
- MDR inhibitor concentration giving the optimal fluorescence signal (22Rv1 cells [7]; single 22Rv1 cell, DNR and OG-PTX accumulation, FIG. 11): 40 µM
